We go through 7 compounds from ChEMBL document CHEMBL1136735, “Design and synthesis of naphthalenic dimers as selective MT1 melatoninergic ligands” (J Med Chem, 2003).

The source made the active and inactive calls. The rule behind the calls is not given here.

Experiment [1] concerns the target T1, Melatonin receptor type 1A (Homo sapiens, UniProt P48039). Briefly: Binding affinity for human Melatonin receptor type 1A stably transfected in human embryonic kidney cells (HEK 293) using 2-[125I]iodomelatonin as radioligand. The experiment is classed as cell-based, HEK293.
The target in experiment [2] is T2, Melatonin receptor type 1B (Homo sapiens, UniProt P49286).
T2 sequence (P49286 whole entry): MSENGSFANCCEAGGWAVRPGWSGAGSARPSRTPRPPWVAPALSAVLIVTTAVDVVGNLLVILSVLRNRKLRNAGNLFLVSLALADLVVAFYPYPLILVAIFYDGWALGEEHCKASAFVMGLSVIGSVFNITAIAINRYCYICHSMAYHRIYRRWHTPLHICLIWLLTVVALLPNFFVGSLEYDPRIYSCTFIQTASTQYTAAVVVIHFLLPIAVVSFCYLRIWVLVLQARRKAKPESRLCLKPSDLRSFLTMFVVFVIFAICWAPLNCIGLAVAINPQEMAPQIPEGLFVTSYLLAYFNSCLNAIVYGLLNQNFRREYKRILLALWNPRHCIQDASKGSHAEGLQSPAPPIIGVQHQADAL
The experiment is described as follows: Binding affinity for human Melatonin receptor type 1B stably transfected in human embryonic kidney cells (HEK 293) using 2-[125I]iodomelatonin as radioligand. The experiment is classed as cell-based, HEK293.

The target of experiment [3] is T1, Melatonin receptor type 1A. The settings on record: CHO.
Experiment [4] has as its target T3, Melatonin receptor type 1B (Homo sapiens) (UniProt P49286).
T3 sequence (whole entry): T2 sequence (P49286 whole entry)
To be noted: CHO.

One may read the Ki as a measure of affinity in units of concentration, obtained from inhibition or displacement. A high value points to weaker binding.

T1 sequence (P48039 whole entry): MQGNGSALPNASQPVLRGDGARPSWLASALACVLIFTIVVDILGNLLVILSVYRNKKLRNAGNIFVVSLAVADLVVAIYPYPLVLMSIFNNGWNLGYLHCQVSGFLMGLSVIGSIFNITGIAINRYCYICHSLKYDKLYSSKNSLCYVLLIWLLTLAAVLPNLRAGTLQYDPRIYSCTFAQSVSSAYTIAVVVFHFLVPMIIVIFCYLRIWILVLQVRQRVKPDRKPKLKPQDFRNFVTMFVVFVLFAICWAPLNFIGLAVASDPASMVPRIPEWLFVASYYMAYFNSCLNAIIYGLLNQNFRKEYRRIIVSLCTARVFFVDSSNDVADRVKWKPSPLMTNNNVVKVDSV

Turning to `CC(=O)NCCc1cccc2ccc(OCCCCCCOc3ccc4cccc(CCNC(C)=O)c4c3)cc12`, the Ki in experiment [1] stood at 0.08 nM; in experiment [2], 2.33 nM.
As for `CC(=O)NCCc1cccc2ccc(OCCCCOc3ccc4cccc(CCNC(C)=O)c4c3)cc12`, the Ki in experiment [1] worked out at 0.6 nM; in experiment [2], 72.7 nM.
For the compound `CC(=O)NCCc1cccc2ccc(OCCCOc3ccc4cccc(CCNC(C)=O)c4c3)cc12`, the IA entry in experiment [3] and in experiment [4] was “inactive” each time. For the same compound, the Ki turned out to be 0.5 nM in experiment [1] and 112 nM in experiment [2].
For the compound `CC(=O)NCCc1cccc2ccc(OCCCCCCCCOc3ccc4cccc(CCNC(C)=O)c4c3)cc12`, the Ki amounted to 0.05 nM in experiment [1] and 0.18 nM in experiment [2].
Regarding `CC(=O)NCCc1cccc2ccc(OCCCCCOc3ccc4cccc(CCNC(C)=O)c4c3)cc12`, the Ki amounted to 0.05 nM in experiment [1] and 1.74 nM in experiment [2].
Taken in the same sequence, the figures for `CC(=O)NCCc1cccc2ccc(OCCCCCCCCCCOc3ccc4cccc(CCNC(C)=O)c4c3)cc12` were 0.03 nM and 0.04 nM.
With `CC(=O)NCCc1cccc2ccc(OCCOc3ccc4cccc(CCNC(C)=O)c4c3)cc12`, the inhibition constant Ki in experiment [1] turned out to be 2.05 nM; in experiment [2], 182 nM.
